Measured values published in paper PMC7570662, “In Vivo Pharmacokinetic Analysis Utilizing Non-Targeted and Targeted Mass Spectrometry and In Vitro Assay against Transient Receptor Potential Channels of Maobushisaishinto and Its Constituent Asiasari Radix” (Molecules, 2020).

What was measured:
[1] = target: T1, human TRPA1 (Homo sapiens, UniProt O75762); assay: Ca2+ influx assay in TRPA1-expressing T-REx-293 cells; format: cell-based; settings: for activation at 10 µM: T-REx-293, read-out: % of Activation Compared to Positive Control against Each Subfamily of TRP Channel TRPA1; for EC50: dose-response test, Ca2+ influx, read-out: EC50 Value against TRPA1
T1 construct: Each full-length human TRPA1, TRPV1, TRPV4, and TRPM8 coding regions were introduced into a pcDNA4/TO vector; expressed in transfected cells; host or cells: T-REx-293 cells (tetracycline-induced, pcDNA4/TO vector)
T1 sequence (O75762 whole entry): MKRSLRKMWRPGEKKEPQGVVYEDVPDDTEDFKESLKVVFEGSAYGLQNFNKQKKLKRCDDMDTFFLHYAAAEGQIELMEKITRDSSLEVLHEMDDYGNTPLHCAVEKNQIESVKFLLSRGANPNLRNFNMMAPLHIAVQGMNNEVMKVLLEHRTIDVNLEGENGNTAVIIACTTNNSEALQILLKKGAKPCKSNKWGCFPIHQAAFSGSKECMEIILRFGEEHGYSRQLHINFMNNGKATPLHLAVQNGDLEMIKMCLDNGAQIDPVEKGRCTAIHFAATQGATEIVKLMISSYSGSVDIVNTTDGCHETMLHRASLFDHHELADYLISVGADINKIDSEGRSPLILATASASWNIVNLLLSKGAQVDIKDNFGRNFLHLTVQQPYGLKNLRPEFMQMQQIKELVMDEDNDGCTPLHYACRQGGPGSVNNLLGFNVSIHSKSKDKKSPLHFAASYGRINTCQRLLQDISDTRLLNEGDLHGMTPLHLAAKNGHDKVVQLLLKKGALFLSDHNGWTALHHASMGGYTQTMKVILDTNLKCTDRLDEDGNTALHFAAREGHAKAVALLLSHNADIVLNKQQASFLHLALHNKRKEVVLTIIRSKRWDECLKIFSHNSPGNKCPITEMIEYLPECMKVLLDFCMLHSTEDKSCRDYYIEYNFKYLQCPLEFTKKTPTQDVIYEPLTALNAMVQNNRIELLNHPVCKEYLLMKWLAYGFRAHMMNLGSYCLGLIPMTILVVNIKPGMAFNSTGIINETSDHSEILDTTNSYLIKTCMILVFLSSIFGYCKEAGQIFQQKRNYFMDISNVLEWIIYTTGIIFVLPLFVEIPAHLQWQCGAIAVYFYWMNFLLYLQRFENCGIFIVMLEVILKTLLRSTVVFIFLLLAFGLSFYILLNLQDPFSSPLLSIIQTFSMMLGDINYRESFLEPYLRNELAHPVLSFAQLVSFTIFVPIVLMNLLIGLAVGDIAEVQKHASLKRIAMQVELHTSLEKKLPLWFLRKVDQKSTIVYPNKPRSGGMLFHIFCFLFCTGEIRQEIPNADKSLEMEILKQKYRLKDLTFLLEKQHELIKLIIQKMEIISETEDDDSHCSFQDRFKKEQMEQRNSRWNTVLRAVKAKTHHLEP
Method: (§1) Each full-length human TRPA1, TRPV1, TRPV4, and TRPM8 coding regions were introduced into a pcDNA4/TO vector (Thermo Fisher Scientific, Waltham, MA, USA) and transfected into T-REx-293 cells (Thermo Fisher Scientific) to obtain stable cell lines expressing human TRPA1, TRPV1, TRPV4, and TRPM8. Cells were cultured in DMEM with 10% FBS, 4 mmol/L L-glutamine, and penicillin/streptomycin.
(§2) Cells were suspended in medium with 1 µg/mL tetracycline and seeded in poly-D-lysine coated 96-well plate at 2.5 × 10^4 cells/well. After overnight culture, the cells were used for Ca^2+ influx assay.
(§3) The Ca^2+ influx assay was performed using a FLIPR Calcium 5 Assay Kit (Molecular Devices, Sunnyvale, CA, USA) according to previously reported methods with minor modifications. In brief, cells were incubated with 80 µL Ca^2+-chelating dye dissolved in assay buffer at pH 7.4 (Hanks’ Balanced Salt Solution containing 20 mmol/L of N-2-hydroxyethylpiperazine-N’-2-ethanesulfonic acid) at room temperature for 30 min. The plates were assayed using a FlexStation 3 Microplate Reader (Molecular Devices). The fluorescence intensity was traced entirely for 80 s. The baseline of fluorescence was measured for 20 s before adding 20 µL of test compound (final concentration, 10 µmol/L). The response was expressed as percentage activation using the relative fluorescence units (RFU) (% activation = 100 × ((RFUmax − RFUbaseline)/RFUbaseline) − 100). Furthermore, the activities of each test compound against several subfamilies of TRP channels were represented as the relative enhancement of Ca^2+ influx of each positive control, indicated as follows: 20 µmol/L of allyl isothiocyanate (an agonist of TRPA1), 2 µmol/L of capsaicin (an agonist of TRPV1), 4 µmol/L of GSK1016790A (an agonist of TRPV4), and 20 µmol/L of icilin (an agonist of TRPM8). The dose–response curve was fitted to the sigmoidal dose-response equation (top, the max response of each compound), and EC50 values were calculated using GraphPad Prism 7 software (GraphPad, San Diego, CA, USA).

[2] = system: LPS-induced NO production in RAW264.7 cells; assay: LPS-induced NO production in RAW264.7 cells (Griess method); format: cell-based, mouse; settings: LPS 3 µg/mL, 24 h, mean of two experiments
Method: The experimental methods and results about the measurement of extracellular NO production are described as following.
Mouse macrophage-like RAW264. 7 cells were obtained from the European Collection of Authenticated Cell Cultures and cultured in Dulbecco’s Modified Eagle Medium (DMEM) containing 10% fetal bovine serum (FBS). The cells were maintained at 37 °C in a humidified incubator with an […]
RAW264. 7 cells were seeded in 48-well plates (6.0 × 10^4 cells per well) and incubated overnight, and then, 1 or 10 µmol/L of test compounds and 3 µg/mL of lipopolysaccharide (LPS; from Escherichia coli 0111: B4, L3024; Sigma-Aldrich) were added into the medium. Following 24 h after addition, 100 µL of conditioned media were collected and mixed with equal volume of Griess reagent (G4410; Sigma-Aldrich), and the mixture was incubated at room temperature for 15 min. Finally, absorbance was determined at 540 nm wave. Nitrite concentrations were quantified using a calibration curve obtained from a dilute solution of NaNO2. […]
production at concentrations of 1 or 10 µmol/L.
Table S3. Effect of Asiasari Radix ingredients on LPS -induced NO production.
Test Compound (% of LPS Control)
Amide A: (2E,4E,8Z,10E)-N-isobutyl-2,4,8,10-dodecatetraenamide. Each test compound (1 or 10 µmol/L) and lipopolysaccharide (LPS, 3 µg/mL) were added into a culture of RAW264. 7 cells. Following 24 h of substance addition, nitric oxide (NO) released in the cell medium was measured by Griess method. Percentage of NO production was calculated using the following equation: (nitrite concentration after treatment with test compound and LPS/nitrite concentration after treatment with LPS only) × 100. Each value represents the mean of two independent experiments

[3] = target: T2, human TRPV4 (Homo sapiens, UniProt Q9HBA0); assay: Ca2+ influx assay in TRPV4-expressing T-REx-293 cells; format: cell-based; settings: 10 µmol/L test compound, relative to 4 µmol/L GSK1016790A; for activation at 10 µM: T-REx-293, read-out: % of Activation Compared to Positive Control against Each Subfamily of TRP Channel TRPV4
T2 construct: Each full-length human TRPA1, TRPV1, TRPV4, and TRPM8 coding regions were introduced into a pcDNA4/TO vector; expressed in transfected cells; host or cells: T-REx-293 cells (tetracycline-induced, pcDNA4/TO vector)
T2 sequence (Q9HBA0 whole entry): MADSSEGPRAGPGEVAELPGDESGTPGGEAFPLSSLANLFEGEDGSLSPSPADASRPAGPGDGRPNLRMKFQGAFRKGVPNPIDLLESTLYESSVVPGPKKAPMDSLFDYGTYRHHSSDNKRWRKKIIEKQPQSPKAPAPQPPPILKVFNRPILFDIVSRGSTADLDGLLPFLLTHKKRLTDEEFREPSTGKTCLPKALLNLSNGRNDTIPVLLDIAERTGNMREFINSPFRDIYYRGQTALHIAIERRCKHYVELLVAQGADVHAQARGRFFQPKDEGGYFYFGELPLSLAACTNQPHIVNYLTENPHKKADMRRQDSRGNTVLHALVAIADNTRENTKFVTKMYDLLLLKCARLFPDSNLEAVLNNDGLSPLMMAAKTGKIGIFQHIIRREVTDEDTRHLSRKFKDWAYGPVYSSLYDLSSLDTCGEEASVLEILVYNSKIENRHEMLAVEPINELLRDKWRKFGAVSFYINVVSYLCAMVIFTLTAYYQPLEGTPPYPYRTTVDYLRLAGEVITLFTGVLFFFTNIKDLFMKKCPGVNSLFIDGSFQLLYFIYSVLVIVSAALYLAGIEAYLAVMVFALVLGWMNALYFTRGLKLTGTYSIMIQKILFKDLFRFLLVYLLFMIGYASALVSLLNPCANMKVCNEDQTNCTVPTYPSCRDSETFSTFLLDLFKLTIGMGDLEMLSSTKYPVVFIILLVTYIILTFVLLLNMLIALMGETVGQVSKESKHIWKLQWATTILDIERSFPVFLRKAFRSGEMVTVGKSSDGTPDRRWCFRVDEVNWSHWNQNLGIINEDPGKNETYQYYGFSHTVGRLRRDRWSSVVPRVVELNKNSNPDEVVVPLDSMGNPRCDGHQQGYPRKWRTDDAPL
Method: as §1, §2, §3

[4] = 10 µmol/L test compound, relative to 20 µmol/L allyl isothiocyanate

Row | SMILES | activation at 10 µM [1, 4] [%] | EC50 [1] [nM] | NO Production (% of LPS Control) ([2]; 1 µmol/L test compound) | NO Production (% of LPS Control) ([2]; 10 µmol/L test compound) | activation at 10 µM [3] [%] | % of Activation Compared to Positive Control against Each Subfamily of TRP Channel TRPA1 [1, 4] [%] | % of Activation Compared to Positive Control against Each Subfamily of TRP Channel TRPV4 [3] [%]
1 | C/C=C/C=C\CC/C=C/C=C/C(=O)NCC(C)C [Amide A, (2E,4E,8Z,10E)-N-isobutyl-2,4,8,10-dodecatetraenamide] | 96 | 470 | 92 % of LPS Control | 82 % of LPS Control | 2.7 | – | –
2 | c1cc2c(cc1[C@H]1OC[C@H]3[C@@H]1CO[C@H]3c1ccc3c(c1)OCO3)OCO2 [Asarinin, (−)-Asarinin] | 106 | 3100 | 99 % of LPS Control | 97 % of LPS Control | -0.1 | – | –
3 | CCC(=O)c1cc2c(cc1OC)OCO2 [Methyl kakuol] | – | 270 | 102 % of LPS Control | 93 % of LPS Control | – | 49 | 0.9
4 | c1cc2c(cc1[C@H]1OC[C@H]3[C@@H]1CO[C@@H]3c1ccc3c(c1)OCO3)OCO2 [Sesamin] | 106 | 2300 | 96 % of LPS Control | 78 % of LPS Control | -0.1 | – | –
